Reference: EPA's ToxValDB 9.5

Tests used:
Rattus norvegicus [1] = assay: FEL; higher = less toxic; conditions: reproduction developmental; duration: 54 days; oral; gavage; F; Wistar; generation: P0; P0: Whole Body: Mortality
Rattus norvegicus [2] = conditions: oral, gavage
Rattus norvegicus [3] = conditions: reproduction developmental; oral; M/F; Reduced body weight gain preceding pregnancy reduced body weight gain in offspring during weaning period
Canidae [4] = conditions: duration: 26 weeks, oral, capsule, M/F, Beagle, Liquid feces
Rattus norvegicus [5] = conditions: duration: 7 days, oral, M, Reduced proportion of time spent in open field central zones, increased immobility time in the open field, reduced proportion of time spent …
Canidae [6] = conditions: chronic; duration: 26 weeks; oral; capsule; M/F; Beagle; gastrointestinal
[7] = developmental, duration: 54 days, M/F, Wistar, generation: F1, F1: Developmental: Whole Body: Dams with Stillborn Pups + F1: Developmental: Whole Body: External Abnormalities + F1: Developmental: Whole …
[8] = developmental, duration: 54 days, generation: F1, F1: Developmental: Whole Body: Dams with Liveborn Pups
[9] = reproduction developmental, duration: 28 days, M, Wistar, generation: P0, P0: Reproductive: Reproductive Organs: Reproductive Organ Histopathology + P0: Reproductive: Whole Body: Copulation Index
[10] = reproduction developmental, duration: 28 days, M, Wistar, generation: P0, P0: Whole Body: Copulation Index
[11] = reproduction developmental, duration: 54 days, F, Wistar, generation: P0, P0: Developmental: Uterus: Implantation + P0: General Toxicity: Whole Body: Clinical Observations + P0: General Toxicity: Whole Body: …
[12] = reproduction developmental, duration: 54 days, F, Wistar, generation: P0, P0: Reproductive: Reproductive Organs: Reproductive Organ Histopathology + P0: Reproductive: Whole Body: Copulation Index + P0: Reproductive…
[13] = reproduction developmental, duration: 54 days, F, Wistar, generation: P0, P0: Reproductive: Whole Body: Length of Gestation
[14] = reproduction developmental, duration: 54 days, F, Wistar, generation: P0, P0: Whole Body: Clinical Observations + P0: Whole Body: Maternal Body Weight + P0: Whole Body: Maternal Body Weight Change
[15] = reproduction developmental, duration: 54 days, F, Wistar, generation: P0, P0: Whole Body: Copulation Index
[16] = reproduction developmental, duration: 54 days, F, Wistar, generation: P0, P0: Whole Body: Length of Gestation + P0: Whole Body: Mortality
[17] = reproduction developmental, duration: 54 days, M/F, Wistar, generation: F1, F1: Whole Body: Litter Weight
[18] = short-term, duration: 28 days, M, Wistar, Adrenal: Adrenal Gland Histopathology + Dermal: Ruffled Fur + Liver: Liver Histopathology + Nerve: Nervous Tissue Histopathology + …
[19] = short-term, duration: 28 days, M, Wistar, Adrenal: Adrenal Gland Weight, Relative + Liver: Liver Weight, Absolute + Lung: Lung Histopathology + Lung: Respiration Distress + Thymus: …
[20] = short-term, duration: 28 days, M, Wistar, Endocrine: Adrenal: Adrenal Gland Histopathology + Endocrine: Adrenal: Adrenal Gland Weight, Absolute + Endocrine: Adrenal: Adrenal Gland …
[21] = short-term, duration: 28 days, M, Wistar, Other Systems: Eye: Ophthalmology + Other Systems: Lung: Lung Histopathology + Other Systems: Lung: Respiration Distress
[22] = subchronic, duration: 54 days, F, Wistar, Adrenal: Adrenal Gland Histopathology + Liver: Liver Histopathology + Nerve: Nervous Tissue Histopathology + Whole Body: Function …
[23] = subchronic, duration: 54 days, F, Wistar, Dermal: Ruffled Fur + Lung: Lung Histopathology + Lung: Respiration Distress + Peripheral Nervous System: Paresis + Thymus: Thymus …
[24] = subchronic, duration: 54 days, F, Wistar, Endocrine: Adrenal: Adrenal Gland Histopathology + Endocrine: Adrenal: Adrenal Gland Weight, Absolute + Endocrine: Adrenal: Adrenal Gland …
[25] = subchronic, duration: 54 days, F, Wistar, Other Systems: Eye: Ophthalmology + Other Systems: Lung: Lung Histopathology + Other Systems: Lung: Respiration Distress

SMILES: CCO[Si](CCC(F)(F)C(F)(F)C(F)(F)C(F)(F)C(F)(F)C(F)(F)F)(OCC)OCC [Triethoxy((perfluorohexyl)ethyl)silane]
- FEL (Rattus norvegicus [1]): 125 mg/kg-day
- LOAEL (Rattus norvegicus [2]; [7]): 100 mg/kg-day
- NOAEL (Rattus norvegicus [2]; [7]): 50 mg/kg-day
- LOAEL (Rattus norvegicus [2]; [8]): 100 mg/kg-day
- NOAEL (Rattus norvegicus [2]; [8]): 50 mg/kg-day
- NEL (Rattus norvegicus [2]; reproduction developmental, duration: 28 days, M, Wistar, generation: P0, P0: Reproductive Organs: Reproductive Organ Histopathology): 125 mg/kg-day
- LOAEL (Rattus norvegicus [2]; [9]): 125 mg/kg-day
- NOAEL (Rattus norvegicus [2]; [9]): 100 mg/kg-day
- LEL (Rattus norvegicus [2]; [10]): 125 mg/kg-day
- NEL (Rattus norvegicus [2]; [10]): 100 mg/kg-day
- LOAEL (Rattus norvegicus [2]; [11]): 100 mg/kg-day
- NOAEL (Rattus norvegicus [2]; [11]): 50 mg/kg-day
- NEL (Rattus norvegicus [2]; reproduction developmental, duration: 54 days, F, Wistar, generation: P0, P0: Reproductive Organs: Reproductive Organ Histopathology + P0: Whole Body: Fertility Index): 125 mg/kg-day
- LOAEL (Rattus norvegicus [2]; [12]): 125 mg/kg-day
- NOAEL (Rattus norvegicus [2]; [12]): 100 mg/kg-day
- LOAEL (Rattus norvegicus [2]; [13]): 125 mg/kg-day
- NOAEL (Rattus norvegicus [2]; [13]): 100 mg/kg-day
- NEL (Rattus norvegicus [2]; reproduction developmental, duration: 54 days, F, Wistar, generation: P0, P0: Uterus: Implantation): 125 mg/kg-day
- LEL (Rattus norvegicus [2]; [14]): 100 mg/kg-day
- NEL (Rattus norvegicus [2]; [14]): 50 mg/kg-day
- LEL (Rattus norvegicus [2]; [15]): 125 mg/kg-day
- NEL (Rattus norvegicus [2]; [15]): 100 mg/kg-day
- LEL (Rattus norvegicus [2]; [16]): 125 mg/kg-day
- NEL (Rattus norvegicus [2]; [16]): 100 mg/kg-day
- NEL (Rattus norvegicus [2]; reproduction developmental, duration: 54 days, M/F, Wistar, generation: F1, F1: Whole Body: Dams with Liveborn Pups): 125 mg/kg-day
- NEL (Rattus norvegicus [2]; reproduction developmental, duration: 54 days, M/F, Wistar, generation: F1, F1: Whole Body: Dams with Stillborn Pups + F1: Whole Body: External Abnormalities + F1: Whole Body: Litter Size + F1: Whole Body: Male Pups …): 125 mg/kg-day
- LEL (Rattus norvegicus [2]; [17]): 100 mg/kg-day
- NEL (Rattus norvegicus [2]; [17]): 50 mg/kg-day
- LEL (Rattus norvegicus [2]; [18]): 100 mg/kg-day
- NEL (Rattus norvegicus [2]; [18]): 50 mg/kg-day
- NEL (Rattus norvegicus [2]; short-term, duration: 28 days, M, Wistar, Adrenal: Adrenal Gland Weight, Absolute + Blood: Hematology, Unspecified + Eye: Ophthalmology, Unspecified + Kidney: Urinalysis, Unspecified…): 150 mg/kg-day
- LEL (Rattus norvegicus [2]; [19]): 150 mg/kg-day
- NEL (Rattus norvegicus [2]; [19]): 100 mg/kg-day
- LOAEL (Rattus norvegicus [2]; [20]): 100 mg/kg-day
- NOAEL (Rattus norvegicus [2]; [20]): 50 mg/kg-day
- NOAEL (Rattus norvegicus [2]; short-term, duration: 28 days, M, Wistar, Hematologic: Blood: Hematology, Unspecified + Urinary: Kidney: Urinalysis): 125 mg/kg-day
- LOAEL (Rattus norvegicus [2]; [21]): 125 mg/kg-day
- NOAEL (Rattus norvegicus [2]; [21]): 100 mg/kg-day
- LEL (Rattus norvegicus [2]; [22]): 100 mg/kg-day
- NEL (Rattus norvegicus [2]; [22]): 50 mg/kg-day
- NEL (Rattus norvegicus [2]; subchronic, duration: 54 days, F, Wistar, Adrenal: Adrenal Gland Weight, Absolute + Adrenal: Adrenal Gland Weight, Relative + Blood: Hematology, Unspecified + Eye: Ophthalmology, …): 150 mg/kg-day
- LEL (Rattus norvegicus [2]; [23]): 150 mg/kg-day
- NEL (Rattus norvegicus [2]; [23]): 100 mg/kg-day
- LOAEL (Rattus norvegicus [2]; [24]): 100 mg/kg-day
- NOAEL (Rattus norvegicus [2]; [24]): 50 mg/kg-day
- NOAEL (Rattus norvegicus [2]; subchronic, duration: 54 days, F, Wistar, Hematologic: Blood: Hematology, Unspecified + Urinary: Kidney: Urinalysis): 125 mg/kg-day
- LOAEL (Rattus norvegicus [2]; [25]): 125 mg/kg-day
- NOAEL (Rattus norvegicus [2]; [25]): 100 mg/kg-day
- LEL (Rattus norvegicus [2]; subchronic, duration: 54 days, F, Wistar, Whole Body: Maternal Body Weight): 50 mg/kg-day

SMILES: CC1(C)C(C=C(Cl)C(F)(F)F)C1C(=O)OC(C#N)c1cccc(Oc2ccccc2)c1 (stereo not drawn) [alpha-Cyhalothrin]
- LEL (Rattus norvegicus [3]): 1.5 mg/kg-day
- NOEL (Rattus norvegicus [3]): 0.5 mg/kg-day
- LOEL (Canidae [4]; chronic): 1 mg/kg-day
- LOEL (Canidae [4]): 1 mg/kg-day
- NOEL (Rattus norvegicus [5]; neurotoxicity): 1 mg/kg-day
- NOEL (Rattus norvegicus [5]; short-term): 1 mg/kg-day
- NOAEL (Canidae [6]): 1 mg/kg-day
